Legend:
[1] = lipid pKa of cationic lipids

lipid pKa [1]	pKa (physchem)	SMILES
6.8		CCCCC/C=C\C/C=C\CCCCCCCCOCC(CN(C)C)OCCCCCCCC/C=C\C/C=C\CCCCC (centres unmarked) [DLinDMA]
	~6.7	CCCCC/C=C\C/C=C\CCCCCCCCC1(CCCCCCCC/C=C\C/C=C\CCCCC)OCC(CCN(C)C)O1 (centres unmarked) [DLin-KC2-DMA, 2,2-Dilinoleyl-4-(2-dimethylaminoethyl)-[1,3]-dioxolane]

— patent publication US10583084B2, “Liposomal formulations for delivery of nucleic acids” (RAMOT AT TEL-AVIV UNIVERSITY LTD., priority 2014, dated 2020)
